Data set [1] in a line: Oral pharmacokinetic study in male rats (oral gavage). Type of data set: in vivo, rat. The settings on record: for AUC(0-t) / Cmax: male, CD, rat, po. As for the experimental part: Compound A (free base) and B (toslyate monohydrate salt of compound A) was administered to male rats, strain CD®, via oral gavage using 1% Poloxamer 407 or 0.5% carboxymethyl cellulose (CMC) as the vehicle (Table 1). All doses were calculated as free base equivalents.
For each dosing group blood was collected from 3 animals at each of the following time points: 0, 0.5, 1, 2, 4, 6, 8, 10, 12, 16, 24, and 48 hours post dose. Plasma was prepared using standard techniques with sodium heparin as anti-coagulant. The Compound A and B plasma concentrations were determined using a GLP-validated LC/MS/MS bioanalytical method. Pharmacokinetic analyses were performed using PK Solutions 2.0™ or WinNonLin 5.1.

Data set [2] in a line: Solubility in cyclodextrins. The settings on record: for solubility: aqueous with cosolvent or surfactant or cyclodextrin, thermodynamic from solid. Type of data set: physicochemical.
The nature of data set [3]: Pharmacokinetic study in male rats, single oral dose in 80% PEG400. The settings on record: rat, in vivo.
The subject of data set [4] is Staphylococcus aureus ATCC 29213. Briefly: Mouse thigh abscess infection model. Type of data set: in vivo. The settings on record: for ED50: Staphylococcus aureus, ATCC29213; for ED50 / ED80 / Static dose: mice, oral, Inhibitory Effect Sigmoid Emax Model fit; for Average Change logCFU/thigh: neutropenic mice, 6 hours post dose, vs time 0 controls. As for the experimental part:
Compound A (free base) unmilled, and the tosylate salt of Compound A milled were tested in the same mouse thigh abscess model following single oral doses in 0.5% carboxymethyl cellulose. Mice (6 per dosing group) were rendered neutropentic, and the thigh of each mouse was injected with 1×10^5 colony forming units (CFU) of Staphylococcus aureus ATCC 29213. Two hours post infection, mice were dosed with the drug orally, and at 6 hours post dose, bacterial viable counts where determined from the thighs of all the mice. Efficacy was calculated as the average change in CFU/thigh compared to time 0 (time of dosing) controls.

[5] abbreviates: in vivo, 10 mg/kg, 10 mg/kg (free base equivalents), 0.5% CMC.
Setting [6] is: in vivo, 10 mg/kg, 10 mg/kg (free base equivalents), 1% Poloxamer 407.
The mark [7] stands for this setting: in vivo, 30 mg/kg, 30 mg/kg (free base equivalents), 0.5% CMC.
The mark [8] stands for this setting: in vivo, 75 mg/kg, 75 mg/kg (free base equivalents), 0.5% CMC.
[9] abbreviates: single oral dose 30 mg/kg in 80% PEG400, particle state Unmilled.
Where [10] appears, read: male, po, 30 mg/kg, single oral dose 30 mg/kg in 80% PEG400, particle state Milled.
Where [11] appears, read: male, po, 30 mg/kg, single oral dose 30 mg/kg in 80% PEG400, particle state Unmilled.
Where [12] appears, read: plasma, 10 mg/kg, 10 mg/kg (free base equivalents), 0.5% CMC.
Where [13] appears, read: plasma, 10 mg/kg, 10 mg/kg (free base equivalents), 1% Poloxamer 407.
Setting [14] is: plasma, 30 mg/kg, 30 mg/kg (free base equivalents), 0.5% CMC.
[15] abbreviates: plasma, 75 mg/kg, 75 mg/kg (free base equivalents), 0.5% CMC.
Where [16] appears, read: single oral dose 0.3 mg/kg in 0.5% carboxymethyl cellulose.
Setting [17] is: single oral dose 1 mg/kg in 0.5% carboxymethyl cellulose.
[18] abbreviates: single oral dose 3 mg/kg in 0.5% carboxymethyl cellulose.
Setting [19] is: single oral dose 10 mg/kg in 0.5% carboxymethyl cellulose.
Where [20] appears, read: single oral dose 30 mg/kg in 0.5% carboxymethyl cellulose.

The text below walks through data of patent publication US8263613B2, “Salts, prodrugs and polymorphs of fab I inhibitors” (Affinium Pharmaceuticals, Inc., priority 2007, dated 2012).

≈ marks a conversion by molar mass, not a printed value. Where two headings read alike, the source gives them in different places.

For orientation: AUC(0-t) means exposure summed from dosing to a finite time, without extrapolation to infinity. Broadly, the Cmax is the peak of the concentration-time curve. As a reminder, the solubility is the dissolved amount per volume that the medium holds. A word on the AUC(0-inf): it is total exposure, with the tail of the curve extrapolated. The term half-life denotes how long it takes for the measured level to halve. A low value points to rapid decline. Broadly, the ED50 is the dose that gives a 50% effect, or the effect in half of the subjects. Read a low ED50 as greater potency.

With `Cc1c(CN(C)C(=O)/C=C/c2cnc3c(c2)CCC(=O)N3)oc2ccccc12.Cc1ccc(S(=O)(=O)O)cc1.O` [Tosylate monohydrate milled, (E)-N-methyl-N-((3-methylbenzofuran-2-yl)methyl)-3-(7-oxo-5,6,7,8-tetrahydro-1,8-naphthyridin-3-yl)acrylamide Tosylate Monohydrate], the “Ratio of tosylate monohyrate/free base AUClast” value in data set [1] (10 mg/kg, 0.5% CMC) came to 2.1; in data set [1] (10 mg/kg, 1% Poloxamer 407) it was 3.0; in data set [1] (30 mg/kg, 0.5% CMC) it was 2.3; in data set [1] (75 mg/kg, 0.5% CMC) it was 1.8. For the same molecule, the “Ratio of tosylate monohyrate/free base Cmax” value in data set [1] (10 mg/kg, 0.5% CMC) was found to be 2.1; in data set [1] (10 mg/kg, 1% Poloxamer 407) it was 2.2; in data set [1] (30 mg/kg, 0.5% CMC), 2.5; in data set [1] (75 mg/kg, 0.5% CMC), 2.4. In addition, the AUC(0-t) is 2040 ng·h/mL in data set [1] (setting [5]), 2660 ng·h/mL in data set [1] (setting [6]), 3680 ng·h/mL in data set [1] (setting [7]) and 4260 ng·h/mL in data set [1] (setting [8]). Also, the maximum concentration (Cmax) in data set [1] (setting [5]) worked out at 347 ng/mL; in data set [1] (setting [6]), 348 ng/mL; in data set [1] (setting [7]) it was 434 ng/mL; in data set [1] (setting [8]) it was 595 ng/mL. Further, the solubility was found to be 26 µg/mL in data set [2] (cyclodextrin concentration 10%, read-out: Solubility in Hydroxypropyl Beta-Cyclodextrin); 67 µg/mL in data set [2] (cyclodextrin concentration 10%, read-out: Solubility in Sulfobutyl Ether Beta-Cyclodextrin); 370 µg/mL in data set [2] (cyclodextrin concentration 40%, read-out: Solubility in Hydroxypropyl Beta-Cyclodextrin); 4000 µg/mL in data set [2] (cyclodextrin concentration 40%, read-out: Solubility in Sulfobutyl Ether Beta-Cyclodextrin). Moreover, the “Solubility relative to the free base milled form” value in data set [2] (sulfobutyl ether beta-cyclodextrin, cyclodextrin concentration 10%) is “approximately 10 fold”.
Consider `Cc1c(CN(C)C(=O)/C=C/c2cnc3c(c2)CCC(=O)N3)oc2ccccc12.O=S(=O)(O)O` [Sulfate, (E)-N-methyl-N-((3-methylbenzofuran-2-yl)methyl)-3-(7-oxo-5,6,7,8-tetrahydro-1,8-naphthyridin-3-yl)acrylamide sulfate], for which, in data set [3] (setting [9]), the total exposure AUC(0-inf) stood at 9970 ng·h/mL, the AUC(0-t) was 9480 ng·h/mL, the highest level (Cmax) was 1940 ng/mL and the half-life was 5.7 h.
Regarding `Cc1c(CN(C)C(=O)/C=C/c2cnc3c(c2)CCC(=O)N3)oc2ccccc12` [Free base, (E)-N-methyl-N-((3-methylbenzofuran-2-yl)methyl)-3-(7-oxo-5,6,7,8-tetrahydro-1,8-naphthyridin-3-yl)acrylamide], the values for the AUC(0-inf) in data set [3] (setting [10]) and in data set [3] (setting [11]) were 6570 ng·h/mL and 1260 ng·h/mL, respectively. Also, the AUC(0-t) was 6370 ng·h/mL in data set [3] (setting [10]); 1160 ng·h/mL in data set [3] (setting [11]); 980 ng·h/mL in data set [1] (setting [12]); 883 ng·h/mL in data set [1] (setting [13]); 1620 ng·h/mL in data set [1] (setting [14]); 2370 ng·h/mL in data set [1] (setting [15]). Also, the Cmax is 1970 ng/mL in data set [3] (setting [10]); 421 ng/mL in data set [3] (setting [11]); 163 ng/mL in data set [1] (setting [12]); 157 ng/mL in data set [1] (setting [13]); 176 ng/mL in data set [1] (setting [14]); 246 ng/mL in data set [1] (setting [15]). Further, the half-life in data set [3] (setting [10]) is 5.5 h; in data set [3] (setting [11]), 2 h. Also, the solubility was determined as 20 µg/mL (≈ 53.3 µM) in data set [2] (10% hydroxypropyl beta-cyclodextrin, cyclodextrin concentration 10%, shake-flask technique, read-out: Solubility in Hydroxypropyl Beta-Cyclodextrin); 9 µg/mL (≈ 24 µM) in data set [2] (10% hydroxypropyl beta-cyclodextrin, cyclodextrin concentration 10%, evaporating an ethanol/water/DMA blend of cyclodextrin and API and reconstituting with water, read-out: Solubility in Hydroxypropyl Beta-Cyclodextrin); 7 µg/mL (≈ 18.6 µM) in data set [2] (10% sulfobutyl ether beta-cyclodextrin, cyclodextrin concentration 10%, read-out: Solubility in Sulfobutyl Ether Beta-Cyclodextrin). The same molecule had an ED50 in data set [4] of 4 mg/kg. The ED80 in data set [4] is 8.8 mg/kg. In addition, the Static dose in data set [4] was 10.5 mg/kg. The “Average Change logCFU/thigh” value in data set [4] (setting [16]) is on record as 1.6 logCFU/thigh; in data set [4] (setting [17]), 1.35 logCFU/thigh; in data set [4] (setting [18]), 0.3 logCFU/thigh; in data set [4] (setting [19]) it was 0.36 logCFU/thigh; in data set [4] (setting [20]), −0.29 logCFU/thigh.
In data set [3] (setting [10]), `CS(=O)(=O)O.Cc1c(CN(C)C(=O)/C=C/c2cnc3c(c2)CCC(=O)N3)oc2ccccc12` [Mesylate, (E)-N-methyl-N-((3-methylbenzofuran-2-yl)methyl)-3-(7-oxo-5,6,7,8-tetrahydro-1,8-naphthyridin-3-yl)acrylamide methane sulfonate] had an AUC(0-inf) of 6040 ng·h/mL, an AUC(0-t) of 5770 ng·h/mL, a Cmax of 884 ng/mL and a half-life of 5 h.
In data set [3] (setting [10]), `Cc1c(CN(C)C(=O)/C=C/c2cnc3c(c2)CCC(=O)N3)oc2ccccc12.Cc1ccc(S(=O)(=O)O)cc1` [Tosylate, (E)-N-methyl-N-((3-methylbenzofuran-2-yl)methyl)-3-(7-oxo-5,6,7,8-tetrahydro-1,8-naphthyridin-3-yl)acrylamide p-toluene sulfonate] showed an AUC(0-inf) of 9510 ng·h/mL, an AUC(0-t) of 9460 ng·h/mL, a Cmax of 1610 ng/mL and a half-life of 3.5 h. In data set [4], this molecule yielded an ED50 of 1.3 mg/kg, an ED80 of 3.4 mg/kg and a Static dose of 2.4 mg/kg. In addition, the “Average Change logCFU/thigh” value in data set [4] (setting [16]) is reported as 1.31 logCFU/thigh. In addition, the “Average Change logCFU/thigh” value in data set [4] (setting [17]) turned out to be 1.08 logCFU/thigh. Moreover, in data set [4] (setting [18]), the “Average Change logCFU/thigh” value is recorded as −0.42 logCFU/thigh. Also, the “Average Change logCFU/thigh” value in data set [4] (setting [19]) is recorded as −0.62 logCFU/thigh. In addition, the “Average Change logCFU/thigh” value in data set [4] (setting [20]) is −0.77 logCFU/thigh.
